This note sets out measurements from patent US20250092014A1, “COMPOUNDS AND METHODS OF ACTIVATING LIPOPROTEIN LIPASE” (Metrea Biosciences, Inc., priority 2021, published 2025).

“Also recorded” adds a separate entry of the source.

The target in assay [1] is T1, Human LPL (Homo sapiens, UniProt P06858).
T1 construct: purchased R&D Systems; host or cells: LPL added from outside to CHO pgsA-745 cells stably transfected with human GPIHBP1-HA
T1 sequence (P06858 28-475): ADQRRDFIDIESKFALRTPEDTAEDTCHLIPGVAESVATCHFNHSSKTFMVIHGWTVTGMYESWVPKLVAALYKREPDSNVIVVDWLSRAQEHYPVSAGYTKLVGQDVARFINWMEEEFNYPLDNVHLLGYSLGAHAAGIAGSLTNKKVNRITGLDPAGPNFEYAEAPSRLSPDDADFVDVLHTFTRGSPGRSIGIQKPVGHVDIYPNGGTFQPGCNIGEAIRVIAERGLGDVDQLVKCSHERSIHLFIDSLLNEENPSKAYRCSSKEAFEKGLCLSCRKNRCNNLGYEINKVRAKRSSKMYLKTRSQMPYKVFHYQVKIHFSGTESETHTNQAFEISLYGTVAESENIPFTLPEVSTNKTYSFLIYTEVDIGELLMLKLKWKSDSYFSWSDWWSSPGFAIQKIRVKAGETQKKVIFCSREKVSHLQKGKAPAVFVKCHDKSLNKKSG
T1 sequence (Q8IV16 21-151 partner limits assumed): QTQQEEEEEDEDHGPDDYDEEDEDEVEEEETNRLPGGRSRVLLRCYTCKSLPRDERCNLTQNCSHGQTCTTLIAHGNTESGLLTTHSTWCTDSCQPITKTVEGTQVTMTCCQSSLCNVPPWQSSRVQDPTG
Kind of assay: Cellular lipolysis assay, Angptl4 protection, CHO pgsA-745/GPIHBP1 cells. The class given is cell-based. The settings on record: 30 μM, 10 μM, 3 μM, 1 M and 0.3 μM doses, compared to 50 nM LPL with 30 nM Angptl4. The procedure:
(§1) Chinese hamster ovary (CHO) mutant pgsA-745 cells were grown in F-12K media (ATCC) with 10% FBS and penicillin/streptomycin. One day prior to transfection 300,000 cells were seeded per well in a 6 well plate and cultured overnight. 2 μg of human GPIHBPI in pcDNA3.1(+)—C-HA (Genscript) were transfected using Lipofectamine 3000 (Invitrogen) and the cells were cultured for 24 hours. Cells were split into selection media (600 μg/ml G418 (Gibco)) and a stable pool was established and verified by qPCR and western blotting using anti-HA (Cell Signaling) and GPIHBP1 (Santa Cruz) antibodies (data not shown).
(§2) CHO pgsA-745 cells overexpressing GPIHBPI were seeded at 200,000 cells per well in 24 well plates and cultured overnight. Media was replaced with serum-free F-12K media containing 0.1 U/ml heparin and cultured for 2 hours to remove surface bound endogenous LPL, then cells were washed with PBS. Human LPL (R&D Systems) was diluted to 50 nM in serum free media and added for 30 minutes gently shaking at room temperature, then cells were washed with PBS to remove unbound LPL. Test compounds were diluted in serum free media and added to cells for 20 minutes at room temperature gently shaking, followed by 10× ANGPTL4 (30 nM final concentration) for another 20 minutes. Test compound and ANGPTL4 were removed and cells washed with PBS. […] Media was removed and fluorescence read at Ex482/Em515.

For assay [2], the target named is T1, Human LPL. Kind of assay: Cellular lipolysis assay, intrinsic activation (Angptl4 omitted), CHO pgsA-745/GPIHBP1 cells. The settings on record: 30 μM, 10 PM, 3 μM and 1 μM doses, compared to 50 nM LPL alone. The class given is cell-based. The procedure: as §1
as §2, with “Test compounds were diluted in serum free media and added to cells for 20 minutes at room temperature gently shaking, followed by 10× ANGPTL4 (30 nM final concentration) for another 20 minutes.” left out

Take `O=C(O)Cc1cc(F)ccc1NC(=O)c1ccc(N2CCCCC2)c(NC(=O)c2nn(CC(F)(F)F)c3ccccc23)c1` [Compound 158, 2-(5-fluoro-2-(4-(piperidin-1-yl)-3-(1-(2,2,2-trifluoroethyl)-1H-indazole-3-carboxamido)benzamido)phenyl)acetic acid]: the “lipolysis activity (EnzChek substrate fluorescence), protection of LPL from inactivation by ANGPTL4” value at Human LPL [1] is reported as “protective action; also recorded: significantly increased lipolysis activity”. At Human LPL [2], the “lipolysis activity (EnzChek substrate fluorescence), intrinsic activation of LPL” value is listed as “intrinsic activation; also recorded: significantly increased lipolysis activity”.
